Laboratory results published in patent US12343319B2, “Compositions and methods for treatment of diseases and disorders” (Atai Therapeutics Inc., priority 2023, dated 2025).
pIC50, pKi: −log10 of the molar value.

Legend:
[1] = tested on: Male Sprague-Dawley rats; test: Rat forced swim test, immobility frequency; format: in vivo; conditions: 10 mg/kg, i.p., once 24 hours prior to the swim test
Procedure: Male Sprague-Dawley rats were placed individually in clear acrylic swim chambers (40 cm height×20.3 cm diameter) filled to 16 cm for a 15-minute pre-swim session on day 1 and filled to 30 cm for a 5-minute swim test session 24 hours later. Rats (n=10 per treatment group) were administered compound 2-1 (3, 10, 30 mg/kg, i.p., 1 mL/kg, based on weight of the free base) or vehicle (40% (w/v) 2-HPBCD in water, i.p.) at 23.5, 16 and 0.5 hours prior to the swim test. The rapid-acting antidepressant, ketamine (10 mg/kg, i.p.), was included in the study as a positive control condition and injected once 24 hours prior to the swim test.

[2] = tested on: primary cortical rat neurons; test: Synaptogenesis assay in primary cortical rat neurons; format: cell-based
Procedure: Pregnant rats for this study were purchased from a commercial breeder. Primary cortical neurons from E17/E18 rat pups were isolated and seeded in 96-well plates. Cells were treated with compound 2-2, FGF (Reference item) or vehicle. After incubation with the respective treatment, cortical neurons were stained for synapsin and tubulin using immunofluorescence.
Stained cells were imaged with the Cytation 5 Multimode reader. From each well, 9 images were taken at 10× magnification. Digital images from cortical neurons were analyzed for the following parameter using a software-supported automatic quantification method: Number of synapsin positive objects. Analysis was performed using Gen5 software. The experiment was run in n=10 technical replicates per condition. Vehicle control and FGF were included on each plate totaling n=20 technical replicates.
Primary cortical neurons were prepared from timed pregnant Spargue Dawley rats at E17/E18. Animals were sacrificed (see section 3.3.1) and embryos were dissected in Calcium and Magnesium free Hanks Balanced Salt Solution (CMF-HBSS) containing 15 mM HEPES and 10 mM NaHCO3, pH 7.2. Embryos were decapitated, skin and skull gently removed and hemispheres were separated. After removing meninges and brain stem, the cortices were isolated, chopped with a sterile razor blade in Chop solution (Hibernate-E without Calcium containing 2% B-27) and digested in 2 mg/mL papain (Worthington) dissolved in Hibernate-E without Calcium for 30 minutes (±5 min) at 30° C. The cortices of the embryos from the two rats were pooled and processed together.
Cortices were triturated for 10-15 times with a fire-polished silanized Pasteur pipette in Hibernate-E without Calcium containing 2% B-27, 0.01% DNaseI, 1 mg/mL BSA, and 1 mg/mL Ovomucoid Inhibitor. Undispersed pieces were allowed to settle by gravity for 3 min and the supernatant was centrifuged for 3 min at 228 g. […]
Cells were counted in a hemacytometer and seeded in nutrition medium on poly-D-lysine pre-coated 96-well plates at a density of 1.5×10^4 cells/well. […]

[3] = molecular target: T1, 5-HT2A receptor (Mus musculus, UniProt P35363); test: 5-HT2A receptor binding in mouse frontal cortical tissue; conditions: for pKi: Mean (Mouse), mouse frontal cortical tissue
[4] = molecular target: T1, 5-HT2A receptor; design: endogenous in cells; host or cells: adult male C57BL/6J mice, in vivo; conditions: i.p., same assay, Klein et al., 2021; cited from earlier work
[5] = molecular target: T2, 5-HT2A receptors in the mouse frontal cortex (Mus musculus, UniProt P35363); test: Ex vivo 5-HT2A receptor occupancy ([3H]cimbi-36) in mouse frontal cortex; conditions: mouse, 3 mg/kg IP, 15 minutes post dosing
T2 construct: Left frontal cortices from each animal were homogenized individually; from tissue

[6] = tested on: Male Sprague-Dawley rats; test: 5-HT2A/2C/1A-mediated behaviors, locomotor activity and body temperature in rats; format: in vivo, rat; conditions: 1 mg/kg SC
Procedure: Forty (40) male Sprague-Dawley rats were used as test subjects in this study. Animals were dosed with vehicle (IP), one of 3 doses of compound 2-2 (3 mg/kg, 10 mg/kg, 30 mg/kg IP) or psilocybin (1 mg/kg SC) and, following the appropriate pre-treatment time, were placed in locomotor activity boxes and continuously monitored for a 1 hr period with data collected into 10-minute time bins. Animals were visually assed for overt behavioral signs, including biomarkers for 5-HT2A receptor target engagement (i.e. wet dog shakes, back muscle contractions and stereotypic behaviors), 5-HT2C receptor activation (yawning, penile grooming), and 5-HT1A behaviors (forepaw treading, hindlimb abduction). Additional behavioral and somatic signs characteristic of 5-HT syndrome (i.e. tremor, salivation, flat body posture) also were measured. Core body temperature change was determined at 0 hr (pre-dose), 1 hr, and 2 hr. Simultaneously, the spontaneous locomotor activity of the rats was measured using automated Med Associates activity test chambers. Activity data collected included total distance travelled, rearing counts, and ambulatory episodes. LMA was measured for a total of 2 hours (i.e. the first hour to include visual assessments of behavioral signs, and the second hour the animals will not be assessed for behavioral signs) with data collected into 10 minute time bins. The tracking arena measured 17″ W×17″ L×12″ H, sensor bars were secured 1″ above the floor to track distance travelled, and a second set of sensor bars were placed ˜5″ above the floor to measure vertical movement and rearing activity. The parameters set on the tracking software were as follows: resolution −50 ms, box size −4 beams, resting delay −500 ms, and ambulatory trigger −3.
Table 14 outlines receptor activity and related behavioral and/or physiological measures.

[7] = tested on: Male WKY rats; test: Sleep-wake behavior, EEG power, body temperature and locomotor activity in WKY rats; format: in vivo, rat; conditions: over 6 hours post dose, WKY rats, IP
Procedure: Male WKY rats (n=7, 289-388 g at the start of dosing) were housed in groups of 2-3 animals per cage with standard housing conditions. For implantation of the EEG electrodes and radio transmitter, the animals were anesthetized with isoflurane (2-5% in oxygen at 11/min) throughout the procedure. The scalp, neck and right flank were cleared of hair using clippers and cleaned using diluted Hibitane (chlorhexidine, 50% (v/v) in water). A non-steroidal anti-inflammatory agent was administered (carprofen 5 mg/kg, s.c.) and the animals placed on a homeothermic blanket (37° C.) with the head fixed in a stereotaxic frame. Incisions were made in the scalp and neck, as well as in the right flank. Blunt dissection of the abdominal muscle was then made to gain access to the peritoneal cavity. A radio transmitter (HD-S02, Data Sciences International) was implanted in the peritoneal cavity and secured to the muscle wall with non-absorbable sutures. The wires of the transmitter were passed using a 19G needle through the muscle wall and then sub-dermally to the scalp to act as Electroencephalogram (EEG)/Electromyograph (EMG) electrodes. The scalp was cleared of connective tissue and two craniotomies were made with a trepanning drill (fronto-parietal coordinates; Bregma+2 mm anterior, midline+1.0 mm lateral and Lambda 0 mm, +1.5 mm lateral). The positive EEG electrode was attached to the anterior craniotomy and the negative EEG electrode to the posterior craniotomy. Both electrodes were secured in place using a suitable adhesive agent (cyanoacrylate gel, RS components). A second set of electrodes were sutured into the nuchal muscle to act as EMG electrodes. All incisions were closed using absorbable suture.
All animals were allowed to recover in a warm environment and given 5 ml of saline subcutaneously (s.c.). Animals were kept singly in the cage until the next day, then pair housed for the duration of post-surgical recovery (minimum 7 days). During the recovery period, the rats received 5 days of standard post-operative care with no further experimental procedures until the pre-operative body weight was regained. The animals were maintained on a 12/12 hour light dark cycle (08:00 am lights on) after the surgery. Home cages and post-operative cages contained bedding and nesting material, along with environmental enrichment such as wooden chew-sticks and plastic tunnels.
On test days, ˜60 minutes after lights-on, animals were placed in recording boxes similar to their home-cages, except that environmental enrichment was restricted to a large bundle of nesting and bedding material, to avoid interference with the telemeter signals. Then, data acquisition was initiated for confirmation of signal quality. EEG and EMG data were acquired using intraperitoneal HD-S02 transmitters (DSI, New Brighton, MN) and Spike2 software (CED). EEG and EMG signals were digitized 500 samples/second, amplified 1000× and bandpass filtered at 0.5-100 Hertz (Hz). After 60 minutes of habituation, each animal was briefly removed from its box and dosed via the intraperitoneal (i.p.) route in a volume of 2 mL/kg. Test conditions included saline vehicle, psilocybin (10 mg/kg) positive control, compound 2-1 at 3, 10 and 30 mg/kg and compound 2-2 at 10, 17 and 30 mg/kg. Doses were based on the molecular weight of the free bases. compound 2-1 and compound 2-2 dosing solutions were prepared in 40% (w/v) hydroxypropyl-beta-cyclodextrin. After dosing, animals were immediately put back into the recording boxes, the experimenter left the room, and recordings continued uninterrupted for 23 hours. At the end of the recording session, the transmitters were turned off and the animals were returned to their home cages. All animals received all treatment conditions in a pseudo randomized cross-over fashion with a minimum washout period of 7 days between doses.
All data was aligned to zero (the time of dosing), with epochs defined as non-overlapping 10-second time segments. […]

T1 sequence (P35363 whole entry): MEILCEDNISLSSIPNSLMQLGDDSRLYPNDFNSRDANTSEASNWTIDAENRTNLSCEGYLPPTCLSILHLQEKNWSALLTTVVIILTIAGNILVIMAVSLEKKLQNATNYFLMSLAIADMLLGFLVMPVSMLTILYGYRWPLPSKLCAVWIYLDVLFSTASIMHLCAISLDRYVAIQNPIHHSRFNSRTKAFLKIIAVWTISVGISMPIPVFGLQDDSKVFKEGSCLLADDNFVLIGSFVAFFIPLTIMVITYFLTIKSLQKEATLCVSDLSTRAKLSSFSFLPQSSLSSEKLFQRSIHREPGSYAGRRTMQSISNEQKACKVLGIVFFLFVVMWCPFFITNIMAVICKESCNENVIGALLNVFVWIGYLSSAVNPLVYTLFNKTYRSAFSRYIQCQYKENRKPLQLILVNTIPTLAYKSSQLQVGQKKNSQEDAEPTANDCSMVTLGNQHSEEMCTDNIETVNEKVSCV
T2 sequence (P35363 whole entry): as above

SMILES: CNC1(c2ccccc2Cl)CCCCC1=O (stereo not drawn) [Ketamine, ketamine, reference compound]
- immobility compared to vehicle [1]: significantly decreased

SMILES: CN(C)CCc1c[nH]c2ccccc12 [N,N-DMT]
- synaptogenesis compared to VC (synapsin positive objects normalized to tubulin III area) ([2]; 1 μM (highest concentration), DIV1-DIV10): significant increase
- synaptogenesis compared to VC (synapsin positive objects normalized to tubulin III area) ([2]; lower concentrations (below 1 μM)): no significance

SMILES: CN(C)CCc1c[nH]c2cccc(O)c12 [Psilocin, psilocin]
- pIC50 [3]: 7.00
- pKi ([3]; Ki): 7.35
- pKi ([3]; pKi): 7.34
- HTR ED50 [4]: 0.17 mg/kg

SMILES: CN(C)CCc1c[nH]c2cccc(OP(=O)(O)O)c12 [Psilocybin, psilocybin, reference compound]
- receptor occupancy at 3 mg/kg ([5]; read-out: % Receptor Occupancy (RO)): 19%
- remaining activity at 3 mg/kg ([5]; read-out: % of Control Binding): 81%
- distance travelled during the first 20 minutes of the 2 hour test [6]: decreased
- total locomotor activity measures [6]: did not affect
- body temperature [7]: ↓(for 6 h)
